# Target: T1, SHMT1-PEMT complex (Mus musculus, UniProt P50431+Q61907)
# T1 construct: native SHMT1-PEMT complex, co-immunoprecipitate / NP-40 lysate of mouse primary astrocytes; full length, untagged; direct SHMT1-PEMT contact not proven
# T1 sequence (P50431 1-478): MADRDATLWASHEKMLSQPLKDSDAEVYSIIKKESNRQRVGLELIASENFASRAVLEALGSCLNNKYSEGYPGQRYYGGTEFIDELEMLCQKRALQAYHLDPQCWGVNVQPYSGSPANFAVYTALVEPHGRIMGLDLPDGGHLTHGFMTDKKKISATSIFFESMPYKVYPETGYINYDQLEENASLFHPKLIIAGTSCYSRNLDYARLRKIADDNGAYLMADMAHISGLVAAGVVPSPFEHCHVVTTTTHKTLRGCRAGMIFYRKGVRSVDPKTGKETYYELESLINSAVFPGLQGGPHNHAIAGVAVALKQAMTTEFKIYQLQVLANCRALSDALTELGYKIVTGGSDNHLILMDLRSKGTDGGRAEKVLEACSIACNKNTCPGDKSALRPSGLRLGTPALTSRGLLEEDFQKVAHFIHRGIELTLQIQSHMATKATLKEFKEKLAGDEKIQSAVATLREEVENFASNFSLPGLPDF
# T1 sequence (Q61907 1-199): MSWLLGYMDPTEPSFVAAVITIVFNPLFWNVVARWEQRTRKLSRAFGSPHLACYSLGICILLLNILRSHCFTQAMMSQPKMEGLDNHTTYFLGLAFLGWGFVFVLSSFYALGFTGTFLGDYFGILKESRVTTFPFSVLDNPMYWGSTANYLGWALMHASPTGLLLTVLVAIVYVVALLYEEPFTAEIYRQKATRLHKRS
# Assay: CETSA and DARTS of co-IP samples, Western blot
# Assay type: biochemical
# Details: 10 µM isoorientin; astrocytes with MPP+ 24 h; heating at 37-67 °C 3 min; protease K digestion 1:400-1:3200; either chain may hold the compound
smiles,measurement,value
"O=c1cc(-c2ccc(O)c(O)c2)oc2cc(O)c([C@@H]3O[C@H](CO)[C@@H](O)[C@H](O)[C@H]3O)c(O)c12 [TMA0698, Isoorientin]","CETSA and DARTS of co-IP samples, Western blot",we found that Iso significantly promoted SHMT1 and PEMT protein stability

# Source: article PMC12866788, “Alternative Pathway for Methyl Supply through the Coupling of SHMT1 and PEMT to Maintain Astrocytic Homeostasis in Parkinson's Disease” (Advanced Science, 2025)
